Read-outs that look alike come from different tables or passages of the source. One block for each compound: values may come before it.
Legend:
[1] = tested on: Bortezomib refractory multiple myeloma cell lines; conditions: Mitsiades et al. 2006; cited from earlier work
MM-1 cells = conditions: 17-AAG treated MM-1 cells; Mitsiades et al. 2006; cited from earlier work
physchem = type: physicochemical; conditions: for solubility thermodynamic / solubility: aqueous buffer, thermodynamic from solid, read-out: L-Lactate Salt of Compound of Formula (I) Concentration
Protocol: Buffers were prepared using monobasic and dibasic salts of sodium phosphate in order to achieve the correct buffer concentrations and pH as follows:
The pH of each buffer was the target pH±0.05. Minor adjustments with small amounts of dilute sodium hydroxide were made to both of the 200 mM buffers to meet this criterion.
(§1) Aliquots of 1 g of the L-lactate salt of the compound of formula (I) were weighed into individual 20 ml scintillation vials and 10 ml of each buffer was added to a vial. An additional sample was prepared in deionised water. Samples were covered in aluminium foil to protect from light and mixed using a magnetic stirrer overnight.
(§2) The appearance of each sample was recorded. Samples were transferred to centrifuge tubes and centrifuged at 3500rpm for 15 minutes. The samples prepared using the 200 mM buffers were visually free of undissolved material, but were centrifuged in order to make sure that all samples were treated the same. The supernatants were retained for determination of compound of formula (I) by UV and pH measurement.
(§3) Assay by UV: A calibration curve was prepared using the L-lactate salt of the compound of formula (I) dissolved in deionised water and covering the range 0 to 0.10 mg/ml. Absorbance was determined at 286 nm. Samples were diluted as necessary using deionised water and absorbance determined at 286 nm versus a blank. The content of the compound of formula (I) was determined using the standard curve. All UV readings were taken in duplicate.

[2] = Solubility in deionised water, acetate, succinate and citrate buffers (Example 5); type: physicochemical; conditions: thermodynamic from solid, read-out: Solubility L-lactate salt of compound of formula (I)
Protocol: as §1, §2, §3
In a manner analogous to Example 3, formulations were prepared of the L-lactate salt of the compound of formula (I) with acetate, succinate and citrate buffers at different concentrations and at different pH. As shown in the table below, neither the acetate nor citrate buffers were as useful as the phosphate buffer formulation of Example 3, but the succinate buffer gave good L-lactate salt solubility.

[3] = Effect of surfactant (polysorbate 80, Tween) on solubility in phosphate buffer pH 7.2 (Example 6); type: physicochemical; conditions: for increase in solubility on addition of Tween: physiological pH, 1-8 (w/v) Tween versus no Tween; for solubility: sodium phosphate buffer, 200 mM phosphate, read-out: Solubility of L-lactate salt of compound of formula (I)
Protocol: Solutions of sodium phosphate buffer at a pH of 7.2 were prepared with and without polysorbate 80 (Tween) and the solubilities of the L-lactate salt of the compound of formula (I) were determined.

K562 cells = conditions: Gone et al. 2002; cited from earlier work
HSP90 = experiment: Hsp90 inhibition (statement); type: biochemical; conditions: no value
[4] = tested on: patients with advanced solid tumours; experiment: Phase I study, Two-Consecutive Day (QDx2) dosing schedule; type: in vivo, human
[5] = tested on: vemurafenib sensitive and resistant models of melanoma; conditions: Rodriguez-Lopez et al., AACR 2012; cited from earlier work
[6] = tested on: solid tumours refractory to standard therapy; conditions: cited from earlier work
refractory solid tumours = conditions: including three GIST patients; Mahadevan et al. 2012; cited from earlier work

SMILES: C=CCNC1=C2C[C@@H](C)C[C@H](OC)[C@H](O)[C@@H](C)/C=C(\C)[C@H](OC(N)=O)[C@@H](OC)/C=C\C=C(/C)C(=O)NC(=CC1=O)C2=O [17-AAG]
- proliferation [1]: potently inhibits proliferation
- cell surface levels of IGF-1R and IL-6R (MM-1 cells): diminished

- solubility thermodynamic (physchem; sodium phosphate buffer 50 mM/pH 5.0, pH of supernatant 5.13): 77.3 mg/mL
- solubility thermodynamic (physchem; sodium phosphate buffer 50 mM/pH 5.5, pH of supernatant 5.18): 75.9 mg/mL
- solubility (physchem; sodium phosphate buffer 200 mM/pH 5.0 (fifth line of table), pH of supernatant 4.99): ≥ 95.7 mg/mL
- solubility (physchem; sodium phosphate buffer 200 mM/pH 5.5, pH of supernatant 5.08): ≥ 94.8 mg/mL
- L-Lactate Salt of Compound of Formula (I) Concentration (physchem; sodium phosphate buffer 100 mM/pH 5.5, pH of supernatant 5.10): 86.3 mg/mL
- L-Lactate Salt of Compound of Formula (I) Concentration (physchem; sodium phosphate buffer 200 mM/pH 5.0 (third line of table), pH of supernatant 5.05): 89.0 mg/mL
- solubility ([2]; acetate buffer, aqueous buffer, 50 mM Acetate pH 5.5, pH 4.87): 24.4 mg/mL
- solubility ([2]; acetate buffer, aqueous buffer, 50 mM Acetate pH 6.0, pH 5.03): 19.1 mg/mL
- solubility ([2]; citrate buffer, aqueous buffer, 50 mM Citrate pH 5.5, pH 5.23): 85.6 mg/mL
- solubility ([2]; citrate buffer, aqueous buffer, 50 mM Citrate pH 6.0, pH 5.55): 83.9 mg/mL
- solubility ([2]; succinate buffer, aqueous buffer, 50 mM Succinate pH 5.5, pH 5.38): 78.3 mg/mL
- solubility ([2]; succinate buffer, aqueous buffer, 50 mM Succinate pH 6.0, pH 5.69): 78.3 mg/mL
- solubility ([2]; succinate buffer, aqueous buffer, 100 mM Succinate pH 6.0, pH 5.76): 89.9 mg/mL
- solubility ([2]; succinate buffer, pH 5.3, aqueous buffer, 100 mM Succinate pH 5.5, pH 5.30): 89.2 mg/mL
- solubility ([2]; Deionised water, pH 5.52): 59.5 mg/mL
- increase in solubility on addition of Tween [3]: 1.5 fold
- increase in solubility on addition of Tween ([3]; listed as lactate salt of the compound of formula (I)): approximately 1.5 fold
- solubility ([3]; aqueous buffer, pH 7.2, Tween 0 % (w/v)): 21 mg/mL
- solubility ([3]; aqueous with cosolvent or surfactant or cyclodextrin, pH 7.2, Tween 1-8 % (w/v)): 33 to 34 mg/mL
SMILES: CC(C)c1cc(C(=O)N2Cc3ccc(CN4CCN(C)CC4)cc3C2)c(O)cc1O.C[C@H](O)C(=O)O [(2,4-Dihydroxy-5-isopropyl-phenyl)-[5-(4-methyl-piperazin-1-ylmethyl)-1,3-dihydro-isoindol-2-yl]-methanone L-lactate salt]

SMILES: Cc1ccc(NC(=O)c2ccc(CN3CCN(C)CC3)cc2)cc1Nc1nccc(-c2cccnc2)n1 [Gleevec]
- apoptosis (K562 cells): induces apoptosis

SMILES: CC(C)c1cc(C(=O)N2Cc3ccc(CN4CCN(C)CC4)cc3C2)c(O)cc1O [compound of formula (I), (2,4-Dihydroxy-5-isopropyl-phenyl)-[5-(4-methyl-piperazin-1-ylmethyl)-1,3-dihydro-isoindol-2-yl]-methanone]
- HSP90 inhibition (HSP90): potent HSP90 inhibitor
- tolerability [4]: well tolerated
- efficacy in melanoma models [5]: effective
- PET scan, metabolic activity of the tumour ([6]; GIST patient, 220 mg/m^2 weekly, before and after treatment, Shapiro 2011): substantial reduction in the metabolic activity of the tumour
- stable disease for beyond 2 cycles of treatment ([6]; twice weekly schedule, further patients, Shapiro et al. 2010): five of the original twenty one patients
- stable disease for at least six months ([6]; twice weekly schedule, one melanoma, one thyroid cancer, Shapiro et al. 2010): two of the original twenty one patients
- objective and durable partial response and stable disease (refractory solid tumours): five patients

From patent US20180169117A1, “PHARMACEUTICAL FORMULATION COMPRISING A SUBSTITUTED PHENYL - (1,3-DIHYDRO-ISOINDOL-2-YL) - METHANONE” (OTSUKA PHARMACEUTICAL CO., LTD., priority 2014, published 2018)
